Assay results as given in patent US20120329758A1, “Combined Treatment Utilizing VB-201” (priority 2010, published 2012).

Assays:
[1] = test system: DSS-induced colitis in mice; assay: Dextran sulfate sodium (DSS)-induced colitis model; assay type: in vivo; conditions: for body weight loss: DSS colitis mice, VB-201 oral daily; for body weight loss / disease activity index (DAI), chronic phase / disease activity index (DAI), acute phase: glatiramer acetate 2 mg per mouse s.c. daily; for disease activity index (DAI), chronic phase: after about day 20; for disease activity index (DAI), chronic phase / disease activity index (DAI), acute phase: VB-201 0.04, 0.4 or 4 mg/kg oral daily, FIG. 3; for disease activity index (DAI), acute phase: until about day 20
Procedure: Colitis was induced in mice with dextran sulfate sodium (DSS), to serve as a model of inflammatory disorders. A solution of 2% DSS was administered in the drinking water of the mice on days 0-4, 19-23 and 32-36 of the experiment.
VB-201 was administered by oral gavage at daily doses of 0.04, 0.4 or 4 mg/kg, beginning 5 days prior to disease induction (i.e., first day of DSS administration). In an alternative treatment, 2 mg per mouse of glatiramer acetate was administered subcutaneously, daily from day 0. Each treatment group included 20 mice. As a negative control, 15 mice were administered vehicle (PBS with 0.5% ethanol) by gavage beginning 5 days prior to disease induction. […], 8 mice were administered vehicle (PBS with 0.5% ethanol) by gavage beginning 5 days prior to disease induction, without treatment with DSS, and 5 mice received no treatment at all. Mice were sacrificed on day 39, and their colon length and weight was determined.
Mice were scored according to a disease activity index (DAI), based on the average score for weight loss, stool consistency and bleeding, as follows: […]

[2] = test system: atherosclerosis (aortic lesion area) in rabbits fed a high-cholesterol diet; assay: Measurement of aortic lesion area in rabbits fed a high-cholesterol diet; assay type: in vivo, male New Zealand White rabbits; conditions: high-cholesterol diet 14 weeks, atorvastatin approx. 2.5 mg/kg daily in diet, VB-201 approx. 4 mg/kg oral gavage 5 days per week, FIG. 1
Procedure: Aortas were collected upon sacrifice. Lesion area was determined by scanning the intensity of Sudan IV stain adhering to the lesioned tissue, using Image-Pro Plus software (Media Cybernetics). Lesion areas were calculated in three different sections of the aorta (aortic arch, thoracic aorta and abdominal aorta). The total aortic lesion area (sum of lesion areas in all 3 sections) was calculated as a percentage of the sum of all 3 section areas.
Atherosclerosis was induced in male New Zealand White rabbits (hsdIF:NZ, Harlan) by supplying the rabbits with a high-cholesterol diet (0.5% w/w cholesterol) for 14 weeks. The rabbits were assigned to four treatment groups (7 or 8 animals per group): a) atorvastatin treatment; b) VB-201 treatment; c) combined atorvastatin+VB-201 treatment; and d) PBS with 0.5% ethanol (control group). […]
(§1) At the end of 14 weeks, the rabbits were sacrificed, and the effects of the treatments were evaluated by measurement of aortic lesion areas and plasma cholesterol levels, and routine blood chemistry assessment (as described hereinabove). Plasma cholesterol levels were also determined after 5 weeks of the high-cholesterol diet.

[3] = Plasma cholesterol assay in rabbits fed a high-cholesterol diet; assay type: in vivo, male New Zealand White rabbits; conditions: for Average cholesterol level / Average cholesterol level (% of control): plasma, atorvastatin 2.5 mg/kg, VB-201 4 mg/kg; for effect on cholesterol levels (in words): rabbits on high-cholesterol diet, atorvastatin 2.5 mg/kg (alone or with VB-201), VB-201 4 mg/kg per se
Procedure: Plasma cholesterol levels were determined in the Bert W. Strassburger Lipid Center (Sheba Medical Center, Israel) using a Cobas Mira analyzer (Roche) and cholesterol reagent (Roche/Hitach).
Atherosclerosis was induced in male New Zealand White rabbits (hsdIF:NZ, Harlan) by supplying the rabbits with a high-cholesterol diet (0.5% w/w cholesterol) for 14 weeks. The rabbits were assigned to four treatment groups (7 or 8 animals per group): a) atorvastatin treatment; b) VB-201 treatment; c) combined atorvastatin+VB-201 treatment; and d) PBS with 0.5% ethanol (control group).
Atorvastatin was administered by supplementing the diet with 50 mg/kg atorvastatin, which corresponds to a daily dose of approximately 2.5 mg/kg, based on a daily food consumption of approximately 125 grams per rabbit and an average weight of 2.5 kg.
VB-201 was administered daily (5 days per week) by oral gavage of the stock solution (2.7 mg/ml) at volume of 1.5 ml per kg body weight, corresponding to a dose of approximately 4 mg/kg.
as §1

[4] = test system: C-reactive protein (CRP); conditions: healthy humans; previously shown; cited from earlier work
[5] = Blood chemistry assay (SGPT, alkaline phosphatase) in rabbits fed a high-cholesterol diet; assay type: in vivo, male New Zealand White rabbits; conditions: 14 weeks of high-cholesterol diet, atorvastatin 2.5 mg/kg, VB-201 4 mg/kg
Procedure: Blood chemistry was assayed by the Pathological Chemistry Institute Laboratory (Sheba Medical Center, Israel) using an AU2700® spectrophotometer (Olympus) and the appropriate Olympus reagents. The parameters evaluated were urea, creatinine, glucose, potassium, sodium, chloride, total calcium, phopshorus, uric acid, bilirubin, SGOT, SGPT, LDH, total CPK, CPK-MB, CK-MB %, total protein, albumin, globulin, alkaline phosphatase and osmolality levels. Atherosclerosis was induced in male New Zealand White rabbits (hsdIF:NZ, Harlan) by supplying the rabbits with a high-cholesterol diet (0.5% w/w cholesterol) for 14 weeks. The rabbits were assigned to four treatment groups (7 or 8 animals per group): a) atorvastatin treatment; b) VB-201 treatment; c) combined atorvastatin+VB-201 treatment; and d) PBS with 0.5% ethanol (control group). […] VB-201 was administered daily (5 days per week) by oral gavage of the stock solution (2.7 mg/ml) at volume of 1.5 ml per kg body weight, corresponding to a dose of approximately 4 mg/kg. At the end of 14 weeks, the rabbits were sacrificed, and the effects of the treatments were evaluated by measurement of aortic lesion areas and plasma cholesterol levels, and routine blood chemistry assessment (as described hereinabove).

[6] = day 39, VB-201 at all tested doses (0.04, 0.4, 4 mg/kg), glatiramer acetate 2 mg per mouse, FIG. 4
[7] = glatiramer acetate 2 mg per mouse s.c. daily from day 0, FIG. 2
[8] = 5 weeks of high-cholesterol diet
[9] = 14 weeks of high-cholesterol diet

Compound | body weight loss [1] | disease activity index (DAI), chronic phase [1] | DSS-induced shortening of the colon length [1, 6] | disease activity index (DAI), acute phase [1] | reduction of aortic lesion areas relative to the control group [2] | Average cholesterol level [3, 8] | Average cholesterol level (% of control) [3, 8] | Average cholesterol level [3, 9] | Average cholesterol level (% of control) [3, 9] | effect on cholesterol levels (in words) [3] | other results
Glatiramer acetate | reduced body weight loss over the period of days 8-22 | did not reduce the DAI | not effective | reduced the DAI | – | – | – | – | – | – | survival by day 39 compared with control mice [1, 7]: below that of control mice; survival until day 23 [1, 7]: 100%
CCCCCCCCCCCCCCCCOCC(COP(=O)([O-])OCC[N+](C)(C)C)OCCCCC(=O)O (stereo not shown) [VB-201, 1-hexadecyl-2-(4′-carboxybutyl)-glycerol-3-phosphocholine] | reduced body weight loss over the period of days 17-24 | reduced the DAI | partially reversed | without reducing the DM | 39% | 1303 mg/dL | 126 % of control | 2195 mg/dL | 131 % of control | did not reduce cholesterol levels | C-reactive protein (CRP) levels, a marker for inflammation [4]: effective at reducing; survival at day 39 ([1]; VB-201 at all tested doses (0.04, 0.4 or 4 mg/kg daily oral gavage), FIG. 2): at least 80%; effect on colon length, compared between doses ([1]; day 39, 0.04 mg/kg VB-201 versus 0.4 and 4 mg/kg, FIG. 4): more effective than the higher doses; DSS-induced increase in the colon weight/length ratios ([1]; day 39, VB-201 at all tested doses (0.04, 0.4, 4 mg/kg), glatiramer acetate 2 mg per mouse, FIG. 5): partially reversed
CC(C)c1c(C(=O)Nc2ccccc2)c(-c2ccccc2)c(-c2ccc(F)cc2)n1CC[C@@H](O)C[C@@H](O)CC(=O)O [Atorvastatin] | – | – | – | – | 33% | 580 mg/dL | 56 % of control | 1082 mg/dL | 64 % of control | reduced cholesterol levels considerably | Average Alkaline Phosphatase level [5]: 104.63 IU/L; Average Alkaline Phosphatase level (% of control) [5]: 174 % of control; Average SGPT level [5]: 110.63 IU/L; Average SGPT level (% of control) [5]: 235 % of control; effect on SGPT and alkaline phosphatase levels (in words) ([5]; rabbits): increased
